Earlier results, collected in US20250074935A1, “HETERODIMER COMPOSITIONS AND METHODS FOR THE TREATMENT OF OCULAR DISORDERS” (Ripple Therapeutics Corporation, priority 2020, published 2025).

Settings: given once a day

CC(C)OC(=O)CCC/C=C\C[C@@H]1[C@@H](CC[C@@H](O)CCc2ccccc2)[C@H](O)C[C@@H]1O [latanoprost]
mean IOP lowering: about 35%
